Experimental findings from ChEMBL document CHEMBL5303573, “Mapping human microbiome drug metabolism by gut bacteria and their genes” (Nature, 2019) are described below.

Series [1] can be described thus: The drug is tested on Bifidobacterium ruminantium strain: fecal isolate for biotransformation. The drug concentrations were measured before and after a 12-h incubation by liquid-chromatography-coupled mass spectrometry (LC–MS). To be noted: 2 µM.
Series [2] in a line: The drug is tested on Bacteroides dorei strain: DSM17855 for biotransformation. The drug concentrations were measured before and after a 12-h incubation by liquid-chromatography-coupled mass spectrometry (LC–MS). The settings on record: phocaeicola dorei, 2 µM.
Series [3] in a line: The drug is tested on Bacteroides pectinophilus strain: ATCC43243 for biotransformation. The drug concentrations were measured before and after a 12-h incubation by liquid-chromatography-coupled mass spectrometry (LC–MS). The settings on record: 2 µM.
Series [4] in a line: The drug is tested on Bacteroides uniformis strain: ATCC8492 for biotransformation. The drug concentrations were measured before and after a 12-h incubation by liquid-chromatography-coupled mass spectrometry (LC–MS). The settings on record: 2 µM.
Series [5] is described as follows: The drug is tested on Clostridium sp. strain: fecal isolate for biotransformation. The drug concentrations were measured before and after a 12-h incubation by liquid-chromatography-coupled mass spectrometry (LC–MS). To be noted: 2 µM.
Series [6] can be described thus: The drug is tested on Clostridium scindens strain: ATCC35704 for biotransformation. The drug concentrations were measured before and after a 12-h incubation by liquid-chromatography-coupled mass spectrometry (LC–MS). The settings on record: 2 µM.
Series [7] in a line: The drug is tested on Dorea formicigenerans strain: ATCC27755 for biotransformation. The drug concentrations were measured before and after a 12-h incubation by liquid-chromatography-coupled mass spectrometry (LC–MS). To be noted: 2 µM.
A short description of series [8]: The drug is tested on Enterococcus faecalis strain: V583 for biotransformation. The drug concentrations were measured before and after a 12-h incubation by liquid-chromatography-coupled mass spectrometry (LC–MS). To be noted: 2 µM.
Series [9] can be described thus: The drug is tested on Ruminococcus gnavus strain: ATCC29149 for biotransformation. The drug concentrations were measured before and after a 12-h incubation by liquid-chromatography-coupled mass spectrometry (LC–MS). The settings on record: mediterraneibacter gnavus, 2 µM.
Series [10] in a line: The drug is tested on Ruminococcus torques strain: ATCC27756 for biotransformation. The drug concentrations were measured before and after a 12-h incubation by liquid-chromatography-coupled mass spectrometry (LC–MS). The format is ADME. Set-up: dose 2 uM, timepoint 0 vs 12 hours. To be noted: 2 µM.
A short description of series [11]: The drug is tested on Subdoligranulum variabile strain: DSM15176 for biotransformation. The drug concentrations were measured before and after a 12-h incubation by liquid-chromatography-coupled mass spectrometry (LC–MS). The settings on record: 2 µM.
Series [12] can be described thus: The drug is tested on Enterobacter cancerogenus strain: ATCC35316 for biotransformation. The drug concentrations were measured before and after a 12-h incubation by liquid-chromatography-coupled mass spectrometry (LC–MS). To be noted: 2 µM.
Series [13] is described as follows: The drug is tested on Escherichia coli strain: BW25113 for biotransformation. The drug concentrations were measured before and after a 12-h incubation by liquid-chromatography-coupled mass spectrometry (LC–MS). To be noted: 2 µM.
Series [14] in a line: The drug is tested on Providencia rettgeri strain: DSM1131 for biotransformation. The drug concentrations were measured before and after a 12-h incubation by liquid-chromatography-coupled mass spectrometry (LC–MS). Set-up: dose 2 uM, timepoint 0 vs 12 hours. To be noted: 2 µM. The format is ADME.
The conditions of series [15]: bacteroides eggerthii, 12 h, 2 µM.
Description: The drug is tested on Bacteroides eggerthii strain: DSM20697 for biotransformation. The drug concentrations were measured before and after a 12-h incubation by liquid-chromatography-coupled mass spectrometry (LC–MS)
Series [16] can be described thus: The drug is tested on Bacteroides ovatus strain: ATCC8483 for biotransformation. The drug concentrations were measured before and after a 12-h incubation by liquid-chromatography-coupled mass spectrometry (LC–MS). The settings on record: 2 µM.
Series [17] is described as follows: The drug is tested on Anaerotruncus colihominis strain: DSM17241 for biotransformation. The drug concentrations were measured before and after a 12-h incubation by liquid-chromatography-coupled mass spectrometry (LC–MS). The settings on record: 2 µM.
For series [18] the following is noted: bifidobacterium adolescentis, 12 h, 2 µM.
Description: The drug is tested on Bifidobacterium adolescentis strain: ATCC 15703 for biotransformation. The drug concentrations were measured before and after a 12-h incubation by liquid-chromatography-coupled mass spectrometry (LC–MS)
Series [19] can be described thus: The drug is tested on Clostridium asparagiforme strain: DSM15981 for biotransformation. The drug concentrations were measured before and after a 12-h incubation by liquid-chromatography-coupled mass spectrometry (LC–MS). The format is ADME. More on the design: dose 2 uM, timepoint 0 vs 12 hours. To be noted: enterocloster asparagiformis, 2 µM.

For the compound `CCOC(=O)[C@H](CCc1ccccc1)N[C@@H](C)C(=O)N1Cc2ccccc2C[C@H]1C(=O)O`, the “Bacterial Biotransformation” value was “Compound metabolized” in series [1]; “Compound metabolized” in series [2]; “Compound metabolized” in series [3]; “Compound metabolized” in series [4]; “Compound metabolized” in [5]; “Compound NOT metabolized” in [6]. Further, the “Bacterial Biotransformation” value was “Compound NOT metabolized” in series [7]; “Compound NOT metabolized” in series [8]; “Compound NOT metabolized” in series [9]; “Compound NOT metabolized” in [10]; “Compound metabolized” in series [11]; “Compound NOT metabolized” in series [12]. In addition, the “Bacterial Biotransformation” value in series [13] was “Compound NOT metabolized”; in series [14] it was “Compound NOT metabolized”; in series [15] it was “Compound metabolized”.
On to `O=C1CN2Cc3c(ccc(Cl)c3Cl)N=C2N1` [ANAGRELIDE], for which the “Bacterial Biotransformation” value in [2] is given as “Compound metabolized”; in [16] it was “Compound NOT metabolized”; in [3], “Compound NOT metabolized”; in series [17], “Compound NOT metabolized”; in series [5], “Compound metabolized”; in [6], “Compound NOT metabolized”. Moreover, the “Bacterial Biotransformation” value in series [7], in series [8], in series [9], in series [10], in [11] and in series [12] was “Compound NOT metabolized” throughout. Moreover, the “Bacterial Biotransformation” value in series [14], in [18] and in [15] was “Compound NOT metabolized” throughout.
On to `CCC1(c2ccc(N)cc2)CCC(=O)NC1=O` (centres undefined) [AMINOGLUTETHIMIDE], for which the “Bacterial Biotransformation” value in series [2], in series [16], in [3], in [17], in series [19] and in series [6] was “Compound NOT metabolized” throughout. In addition, the “Bacterial Biotransformation” value in series [7], in series [8], in [9], in series [12], in [13] and in series [14] was “Compound NOT metabolized” each time. The “Bacterial Biotransformation” value in series [18] and in series [15] was “Compound NOT metabolized” each time.
Regarding `NC12CC3CC(CC(C3)C1)C2` [AMANTADINE], the “Bacterial Biotransformation” value in series [1] was “Compound metabolized”; in [2], “Compound NOT metabolized”; in series [16] it was “Compound NOT metabolized”; in series [3] it was “Compound NOT metabolized”; in series [4] it was “Compound metabolized”; in series [17], “Compound NOT metabolized”. Besides, the “Bacterial Biotransformation” value in series [19], in series [5], in series [6], in [7], in series [8] and in series [9] was “Compound NOT metabolized” each time. Besides, the “Bacterial Biotransformation” value in series [10], in series [12], in [18] and in series [15] was “Compound NOT metabolized” each time.
For the compound `CCOC(=O)[C@H](CCc1ccccc1)N[C@@H](C)C(=O)N1[C@H](C(=O)O)C[C@H]2CCCC[C@@H]21` [TRANDOLAPRIL], the “Bacterial Biotransformation” value is on record as “Compound metabolized” in series [1]; “Compound metabolized” in [2]; “Compound metabolized” in [4]; “Compound NOT metabolized” in [19]; “Compound NOT metabolized” in [6]; “Compound NOT metabolized” in series [7]. For the same compound, the “Bacterial Biotransformation” value in series [9] is on record as “Compound NOT metabolized”; in [10], “Compound NOT metabolized”; in series [12], “Compound NOT metabolized”; in series [14], “Compound metabolized”; in [18], “Compound NOT metabolized”; in series [15] it was “Compound metabolized”.
Turning to `CN1CCN(C2=Nc3cc(Cl)ccc3Nc3ccccc32)CC1` [CLOZAPINE], the “Bacterial Biotransformation” value in series [1], in [2], in [16], in series [3], in [4] and in series [5] was “Compound NOT metabolized” throughout. The “Bacterial Biotransformation” value in [6], in [7], in series [9], in series [10], in [11] and in series [12] was “Compound NOT metabolized” throughout. Moreover, the “Bacterial Biotransformation” value in series [13], in series [14], in series [18] and in [15] was “Compound NOT metabolized” throughout.
`NS(=O)(=O)c1cc2c(cc1Cl)N=C(CSCc1ccccc1)NS2(=O)=O` [BENZTHIAZIDE]: the “Bacterial Biotransformation” value in series [1], in series [16], in series [3], in series [4], in series [17] and in series [19] was “Compound NOT metabolized” throughout. Besides, the “Bacterial Biotransformation” value in [5] is “Compound metabolized”; in [6] it was “Compound NOT metabolized”; in [7] it was “Compound NOT metabolized”; in series [8], “Compound NOT metabolized”; in [9], “Compound NOT metabolized”; in series [12] it was “Compound NOT metabolized”. Besides, the “Bacterial Biotransformation” value in series [14], in series [18] and in series [15] was “Compound NOT metabolized” throughout.
For the compound `CN(C)CCOC(c1ccc(Cl)cc1)c1ccccn1.O=C(O)/C=C\C(=O)O` (centres undefined) [CARBINOXAMINE MALEATE], the “Bacterial Biotransformation” value in series [2], in [16], in series [3], in [4], in [17] and in series [19] was “Compound NOT metabolized” in each case. For the same compound, the “Bacterial Biotransformation” value in [5], in series [6], in series [7], in [8], in series [9] and in series [10] was “Compound NOT metabolized” in each case. Moreover, the “Bacterial Biotransformation” value in series [12], in series [14], in [18] and in series [15] was “Compound NOT metabolized” in each case.
